In US5496853A, “Benzoxa condensed ring compounds, process for producing the same and pharmaceutical composition comprising the same” (Teijin Limited, priority 1990, dated 1996) one finds IC50 and change in vivo data, which are given here for one compound.

One may read the IC50 as the concentration at which inhibition is half-maximal.

The target in experiment [1] is T1, ACAT (Oryctolagus cuniculus, UniProt G1SFD9).
T1 construct: from tissue; host or cells: domestic rabbit intestinal mucosa, microsome fraction (105,000×g precipitate)
T1 sequence (G1SFD9 1-524): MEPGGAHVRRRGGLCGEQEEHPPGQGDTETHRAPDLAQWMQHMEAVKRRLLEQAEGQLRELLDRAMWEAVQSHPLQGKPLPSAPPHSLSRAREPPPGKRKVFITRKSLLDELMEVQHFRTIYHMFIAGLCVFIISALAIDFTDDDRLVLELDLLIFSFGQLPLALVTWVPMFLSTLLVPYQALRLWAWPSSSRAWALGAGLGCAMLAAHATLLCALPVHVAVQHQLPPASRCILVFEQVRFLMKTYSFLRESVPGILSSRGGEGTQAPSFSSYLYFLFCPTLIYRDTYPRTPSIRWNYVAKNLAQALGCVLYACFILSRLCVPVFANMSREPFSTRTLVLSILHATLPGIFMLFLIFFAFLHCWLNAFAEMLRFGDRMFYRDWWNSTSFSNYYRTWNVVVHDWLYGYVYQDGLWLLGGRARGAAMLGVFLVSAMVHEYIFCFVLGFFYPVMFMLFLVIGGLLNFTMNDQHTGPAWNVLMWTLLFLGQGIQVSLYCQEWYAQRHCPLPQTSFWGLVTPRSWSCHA
Description: ACAT enzyme inhibitory activity of rabbit intestinal mucosa. Format: biochemical. The following applies: rabbit intestinal mucosa microsome, [1-14C] oleoyl CoA, 37° C., pH 7.4. Here is the method: Measurement of ACAT enzyme inhibitory activity (measurement of ACAT enzyme inhibitory activity of rabbit intestinal mucosa)
Preparation of a domestic rabbit intestinal mucosa microsome and measurement of the ACAT enzyme activity were conducted by slightly modifying a method established by Salone and Field (see Biochemica et Biophysica, vol. 712, 557 (1982).
The supernatant was further centrifuged at 105,000×g and a temperature of 4° C. for one hour to provide a precipitate. The precipitate was resuspended in the buffer A to provide a microsome fraction.
A 1 %v/v dimethylsulfoxide solution of each specimen compound in a predetermined concentration was added to the buffer A containing 43 μM serum albumin and 0.5 mg/ml microsome fraction, and the mixture was heated at 37° C. for 5 min.
Then, 43 μM oleoyl CoA containing [1^-14 C] oleoyl CoA (3.7 kB) was added thereto, the mixture was heated at 37° C. for 10 rain, and chloroform/methanol (2/1) containing 10 mg/ml cholesteryl oleate was added thereto to terminate the reaction.
0.111 kB of [^3 H] cholesteryl oleate and 1N hydrochloric acid were added thereto, and the mixture was stirred. The cholesteryl oleate extracted into the chloroform layer was isolated by thin-layer chromatography, and the radioactivity was measured as the ACAT activity.

Experiment [2] relates to serum cholesterol. Nature of the experiment: percentage change of serum cholesterol in cholesterol-fed rats. Format: in vivo, Male Wistar rats. The following applies: Rattus norvegicus, 72 h; 10 mg/kg oral, once a day for three days, cholesterol-enriched feed, vs control. An excerpt: Measurement of percentage change of serum cholesterol
Male Wistar rats having a weight of 200 g were preliminarily bred for 7 days while they freely ingested a normal feed (CE-2 manufactured by CLEA Japan Inc.).
Thereafter, they were bred for 3 days while they freely ingested a feed enriched with cholesterol and fat (2% cholesterol, 1% cholic acid, 20% casein, 45% fine granulated sugar, 12% coconut oil, 4% KC flock, 1% mixed vitamin, 7% mixed mineral and 8% dried fish powder; a product of CLEA Japan Inc.). During the cholesterol loading period, the test compound of the present invention was orally administered to the above test animals at a dose of 0.1 to 10 mg per kg of the weight once a day for three days. On the other hand, the excipient alone was administered to the control animals.
After 8 hrs from the last administration, the test animals were fasted. 16 hr after the initiation of the fasting, these test animals were slaughtered. The serum cholesterol level was measured for each animal.
The results were compared with those of the control and are given as percentage serum cholesterol (%) in Table 3.
Percentage change of serum cholesterol (%)={(A-B)/B}×100
wherein A represents the total cholesterol level of serum in the group of rats to which the test compound was administered; and B represents the total cholesterol level of serum in the control group of rats.

On to `Cc1cc(C)c(NC(=O)C(C)(C)CCCCCCOCC(C)(C)C)c2c1CC(C)(C)O2` [Ex. 50], for which inhibition in experiment [1] was half-maximal at 45 nM (IC50). Also, the change in vivo at 10 mg/kg in experiment [2] was -54%.
